Data taken from patent US5039528A, “EAA antagonists as anti-emetic drugs” (priority 1989, dated 1991).
Like-named read-outs stand apart in the source and are kept apart here.

Legend:
[1] = tested on: NMDA receptors; experiment: Chick retina assay: protection against excitotoxic action of NMDA; assay type: cell-based
Text: (§1) Antagonist potencies were established in a chick retina assay which has
(§2) (NMDA, KA and Quis) for excitotoxic properties and EAA antagonists for
(§3) potency in protecting the retina against the excitotoxic action of such
(§4) agonists. The concentration of antagonist required to totally prevent the
(§5) toxic action of an agonist was used to compare antagonists for potency.
(§6) For purposes of illustration, the data were normalized by assigning a
(§7) EAA antagonist properties have been described in each category. Antagonis
(§8) potencies were established in a chick retina assay which has been used by
(§9) Quis) for excitotoxic properties and EAA antagonists for potency in
(§10) protecting the retina against the excitotoxic action of such agonists.
(§11) concentration of antagonist required to totally prevent the toxic action
(§12) of an agonist was used to compare antagonists for potency. For purposes o
(§13) to kynurenic acid vs KA (see table 1) and all other values were adjusted

[2] = cited from earlier work; for penetration of blood brain barriers: statement in text; for BBB penetrability: Table 1
[3] = tested on: humans; settings: humans; cited from earlier work
[4] = tested on: KA receptors; experiment: Chick retina assay: protection against excitotoxic action of KA; assay type: cell-based
Text: as §1, §2, §3, §4, §5, §6, §7, §8, §9, §10, §11, §12, §13

[5] = tested on: Quis receptors; experiment: Chick retina assay: protection against excitotoxic action of Quis; assay type: cell-based
Text: as §1, §2, §3, §4, §5, §6, §7, §8, §9, §10, §11, §12, §13

[6] = tested on: EAA receptors (NMDA, KA, Quis); settings: cited from earlier work
[7] = tested on: neurons; settings: cited from earlier work
[8] = tested on: emesis associated with cancer chemotherapy; settings: cited from earlier work; for side effects: high doses; for anti-emetic effect in cancer chemotherapy: in vivo
[9] = Table 2, normalized to kynurenic acid vs KA = 1
[10] = Table 1, normalized to kynurenic acid vs KA = 1

**Q.** What does the source list for CCNC1(c2cccs2)CCCCC1=O (racemic) [tilletamine]?
**A.** EAA antagonist potency vs NMDA [1, 9]: 200; penetration of blood brain barriers [2]: permeate easily through BBB's; psychotic effects [3]: psychotic effects

**Q.** With O=C(O)c1cc(O)c2ccc(Cl)cc2n1 [7-Cl-kynurenate, 7-chloro-kynurenic acid] as the compound, how does the “EAA antagonist potency vs NMDA” value [1, 10] read?
**A.** 10

**Q.** And the “EAA antagonist potency vs KA” value [4, 10]?
**A.** 4

**Q.** What about the “EAA antagonist potency vs Quis” value [5, 10] of the same compound?
**A.** 3

**Q.** And the “EAA receptor subtype order of blockade” value [6]?
**A.** NMDA>KA>Quis

**Q.** What about the BBB penetrability [2] of the same compound?
**A.** very low

**Q.** What about the “penetration of blood brain barriers” value [2] of the same compound?
**A.** do not penetrate blood-brain barriers

**Q.** With N[C@H](CCCP(=O)(O)O)C(=O)O [D-AP5, D-2-amino-5-phosphonopentanoate] as the compound, how does the “EAA antagonist potency vs NMDA” value [1, 10] read?
**A.** 40

**Q.** With N[C@H](CCCCCP(=O)(O)O)C(=O)O [D-AP7, D-2-amino-7-phosphonoheptanoate] as the compound, how does the “EAA antagonist potency vs NMDA” value [1, 10] read?
**A.** 13

**Q.** What about the BBB penetrability [2] of the same compound?
**A.** very low

**Q.** And the “penetration of blood brain barriers” value [2]?
**A.** do not readily penetrate blood brain barriers

**Q.** What does the source list for O=c1[nH]c2cc([N+](=O)[O-])c([N+](=O)[O-])cc2[nH]c1=O [DNQX, 6,7-dinitro-quinoxaline-2,3-dion]?
**A.** EAA antagonist potency vs NMDA [1, 10]: 10; EAA antagonist potency vs KA [4, 10]: 20; EAA antagonist potency vs Quis [5, 10]: 40; block of non-NMDA vs NMDA receptors [6]: block non-NMDA receptors substantially more powerfully than NMDA receptors; potency compared with kynurenic or 7-chloro-kynurenic acid [6]: significantly more powerful; BBB penetrability [2]: very low; penetration of blood brain barriers [2]: do not penetrate blood-brain barriers

**Q.** For OC(CN1CCC(Cc2ccc(F)cc2)CC1)c1ccc(Cl)cc1 (stereo not drawn) [SL 82,0715], which “EAA antagonist potency vs NMDA” value [1, 10] is on record?
**A.** 50

**Q.** Which “reduction of the neurotoxicity of NMDA antagonists that penetrate the BBB” value ([7]; in vivo) does the source give for CN1[C@@H]2CC[C@H]1C[C@@H](OC(c1ccccc1)c1ccccc1)C2 [benztropine] here?
**A.** effective in reducing the neurotoxicity

**Q.** With OC(CCN1CCCCC1)(c1ccccc1)C1CC2C=CC1C2 (stereo not drawn) [biperiden] as the compound, how does the “reduction of the neurotoxicity of NMDA antagonists that penetrate the BBB” value ([7]; Ser. No. 424,548) read?
**A.** effective in reducing the neurotoxicity

**Q.** Which results are given for CN1CCN(CCCN2c3ccccc3Sc3ccc(Cl)cc32)CC1 [compazine]?
**A.** side effects [8]: severe side effects such as abnormal motor movements, muscle rigidity, and tremors; anti-emetic effect in cancer chemotherapy [8]: only weakly active as anti-emetics

**Q.** For COc1ccc2c(c1)[C@]13CCCC[C@@H]1[C@H](C2)N(C)CC3 [dextromethorphan], which “EAA antagonist potency vs NMDA” value [1, 9] is on record?
**A.** 20

**Q.** With CN1CC[C@@]23CCCC[C@@H]2[C@@H]1Cc1ccc(O)cc13 [dextrorphan] as the compound, how does the “EAA antagonist potency vs NMDA” value [1, 9] read?
**A.** 40

**Q.** For CCN(CC)C(C)CN1c2ccccc2Sc2ccccc21 (stereo not drawn) [ethopropazine], which “EAA antagonist potency vs NMDA” value [1, 9] is on record?
**A.** 40

**Q.** With O=C(CCCN1CCC(O)(c2ccc(Cl)cc2)CC1)c1ccc(F)cc1 [haloperidol] as the compound, how does the side effects [8] read?
**A.** severe side effects such as abnormal motor movements, muscle rigidity, and tremors

**Q.** What about the “anti-emetic effect in cancer chemotherapy” value [8] of the same compound?
**A.** only weakly active as anti-emetics

**Q.** For CC(C(O)c1ccc(O)cc1)N1CCC(Cc2ccccc2)CC1 (stereo not drawn) [ifenprodil], which “EAA antagonist potency vs NMDA” value [1, 10] is on record?
**A.** 100

**Q.** With CNC1(c2ccccc2Cl)CCCCC1=O (stereo not drawn) [ketamine] as the compound, how does the psychotic effects [3] read?
**A.** psychotic effects

**Q.** What does the source list for C=CCC1(C(C)CCC)C(=O)N=C(S)NC1=O (stereo not drawn) [thiamylal]?
**A.** EAA antagonist potency vs NMDA [1, 9]: 13; EAA antagonist potency vs KA [4, 9]: 3; EAA antagonist potency vs Quis [5, 9]: 2

**Q.** What does the source list for CCCC(C)C1(CC)C(=O)NC(=S)NC1=O (stereo not drawn) [thiopental]?
**A.** EAA antagonist potency vs NMDA [1, 9]: 7; EAA antagonist potency vs KA [4, 9]: 2; EAA antagonist potency vs Quis [5, 9]: 2

**Q.** Which “EAA antagonist potency vs NMDA” value [1, 10] does the source give for NC(CCCC(=O)O)C(=O)O (stereo not drawn) [α-amino adipate] here?
**A.** 5
